Source: patent publication US20140120036A1, “RADIOLABELED 5-HT6 LIGANDS” (AbbVie Inc., priority 2012, published 2014)
Like-named read-outs stand apart in the source and are kept apart here.

Experiments:
[1] = Brain regional distribution of [3H]compound relative to cerebellum; assay type: in vivo
h-5-HT2A receptor = target: T1, h-5-HT2A receptor (Homo sapiens, UniProt P28223); assay: 5-HT2A receptor binding assay ([125I]-DOI displacement, CHO-K1 membranes)
T1 construct: purchased Perkin Elmer ES-3,3-M400UA; host or cells: CHO-K1 cell membranes
T1 sequence (P28223 whole entry): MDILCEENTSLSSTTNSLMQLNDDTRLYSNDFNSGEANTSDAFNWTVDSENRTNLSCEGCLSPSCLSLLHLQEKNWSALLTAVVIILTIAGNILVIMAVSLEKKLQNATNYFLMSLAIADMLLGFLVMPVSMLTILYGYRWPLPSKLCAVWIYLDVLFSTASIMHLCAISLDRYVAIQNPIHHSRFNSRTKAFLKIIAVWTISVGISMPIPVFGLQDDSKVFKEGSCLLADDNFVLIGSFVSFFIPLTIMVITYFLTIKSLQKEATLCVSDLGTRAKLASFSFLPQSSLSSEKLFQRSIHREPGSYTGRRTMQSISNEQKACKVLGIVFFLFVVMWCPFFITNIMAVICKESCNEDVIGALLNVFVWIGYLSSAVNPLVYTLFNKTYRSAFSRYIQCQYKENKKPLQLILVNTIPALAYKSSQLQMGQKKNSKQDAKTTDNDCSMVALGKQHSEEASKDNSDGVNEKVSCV
Experimental: The cells were collected by centrifugation at 500 g for 10 min. at 4° C., washed with PBS and centrifuged (500 g, 10 min. 4° C.). The pellets were stored at −80° C. until use. For membrane preparation, the thawed cell pellet was resuspended in ice-cold sucrose buffer (0.25 M sucrose, 10 mM Hepes (pH 7.4), 1 mM Phenylmethylsulfonyl fluoride (PMSF) in DMSO, […] Pepstatin-A, 3 mM EDTA, 0.025% Bacitracin) and homogenized with a Branson Sonifier W-250 (Settings: Timer 4; Output Control 3; Duty Cycle constant; 2 to 3 cycles). Cell disruption was checked with the aid of a microscope. Remaining unbroken cells were pelleted at 1,000 g for 10 min. at 4° C. The sucrose buffer supernatant was then centrifuged at 60,000 g for 1 h at 4° C. (Beckman Ultrazentrifuge XL 80). The pellet was resuspended in 30 ml ice-cold Tris buffer (20 mM TRIS (pH 7.4), […] Pepstatin A, 0.1 mM PMSF, 3 mM EDTA) by pipetting through a 10 ml serological pipet and centrifuged for 1 h at 4° C. at 60,000 g. A final resuspension was performed in a small volume of ice-cold Tris buffer (see above) by pressing through a serological pipet followed by ultrasonic treatment with a Branson Sonifier W-250 (Settings: Timer 1; Output Control 3; Duty Cycle constant; 1 cycle). Protein concentration was determined (BCA-Kit; Pierce) and aliquots stored at −80° C. or in liquid nitrogen for long-term storage.
After the plates had been dried for 2 h at 55° C. in a drying chamber scintillation cocktail (BetaPlate Scint; PerkinElmer) was added. Radioactivity was measured in a Microbeta Trilux two hours after the addition of the scintillation mixture. Data derived from liquid scintillation counting were analysed by iterative non-linear regression analysis with the use of the Statistical Analysis System (SAS): a program similar to “LIGAND” as described by Munson and Rodbard (Analytical Biochemistry 107, 220-239 (1980).
Data derived from liquid scintillation counting were analyzed by iterative non-linear regression analysis with the use of the Statistical Analysis System (SAS): a program similar to “LIGAND” as described by Munson and Rodbard (Anal. Biochem. 1980, 107, 220-239). Fitting was performed according to formulae described by Feldman (Anal. Biochem. 1972, 48, 317-338).

Mk striatum 5-HT6 = Mk striatum 5-HT6 (Macaca mulatta, UniProt A0A5F7ZDI3); assay: Mk striatum 5-HT6 binding; design: species or system Mk (monkey)
Chain of Mk striatum 5-HT6 (A0A5F7ZDI3 1-440): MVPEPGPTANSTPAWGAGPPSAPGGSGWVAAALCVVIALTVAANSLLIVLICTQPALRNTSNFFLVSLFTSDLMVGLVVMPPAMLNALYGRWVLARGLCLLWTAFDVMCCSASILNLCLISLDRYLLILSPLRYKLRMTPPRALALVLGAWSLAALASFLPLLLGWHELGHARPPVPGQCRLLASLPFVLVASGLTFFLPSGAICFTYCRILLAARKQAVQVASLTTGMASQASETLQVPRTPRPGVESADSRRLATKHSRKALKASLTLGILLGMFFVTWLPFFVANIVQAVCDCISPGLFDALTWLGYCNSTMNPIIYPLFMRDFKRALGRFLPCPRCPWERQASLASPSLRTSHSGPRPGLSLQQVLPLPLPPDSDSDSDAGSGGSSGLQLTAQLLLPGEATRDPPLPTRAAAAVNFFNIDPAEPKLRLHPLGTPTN

[2] = target: 78 targets (CEREP) other than the 5-HT6 receptor; assay: Selectivity panel, 78 targets (CEREP); assay type: binding; conditions: all but the 5-HT2B and 5-HT2A receptors, read-out: Ki at ancillary targets
Rat microsome half-life = assay type: in vitro ADME; conditions: rat microsomes, read-out: Rat microsome T½ (mm)
Rat 5-HT6 = Rat 5-HT6 (Rattus norvegicus, UniProt P31388); assay: Rat 5-HT6 binding
Chain of Rat 5-HT6 (P31388 whole entry): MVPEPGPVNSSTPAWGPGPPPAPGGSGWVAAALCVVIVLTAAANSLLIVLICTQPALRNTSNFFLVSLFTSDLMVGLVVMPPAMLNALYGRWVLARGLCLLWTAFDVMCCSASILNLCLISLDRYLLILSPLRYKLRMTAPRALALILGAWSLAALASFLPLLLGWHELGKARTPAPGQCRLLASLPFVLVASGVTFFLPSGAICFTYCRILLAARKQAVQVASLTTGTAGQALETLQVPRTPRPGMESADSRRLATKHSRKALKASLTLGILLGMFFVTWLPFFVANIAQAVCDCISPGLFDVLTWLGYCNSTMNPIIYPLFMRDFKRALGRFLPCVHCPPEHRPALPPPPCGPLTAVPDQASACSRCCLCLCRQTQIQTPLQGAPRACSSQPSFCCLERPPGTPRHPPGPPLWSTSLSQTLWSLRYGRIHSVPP

h-5-HT6 receptor = target: T2, h-5-HT6 receptor (Homo sapiens, UniProt P50406); assay: 5-HT6 receptor binding assay ([3H]-LSD displacement, HEK293 membranes); conditions: human 5-HT6
T2 construct: expressed in transfected cells
T2 sequence (P50406 whole entry): as the sequence (A0A5F7ZDI3 1-440) above, with V41A, V49A, P141L, A304V, W342R, Q393R, R406Q, K429E, L432P, T437I counted along it
Experimental: The cells were collected by centrifugation at 500 g for 10 min. at 4° C., washed with PBS and centrifuged (500 g, 10 min. 4° C.). The pellets were stored at −80° C. until use. For membrane preparation, the thawed cell pellet was resuspended in ice-cold sucrose buffer (0.25 M sucrose, 10 mM Hepes (pH 7.4), 1 mM Phenylmethylsulfonyl fluoride (PMSF) in DMSO, […] Pepstatin-A, 3 mM EDTA, 0.025% Bacitracin) and homogenized with a Branson Sonifier W-250 (Settings: Timer 4; Output Control 3; Duty Cycle constant; 2 to 3 cycles). Cell disruption was checked with the aid of a microscope. Remaining unbroken cells were pelleted at 1,000 g for 10 min. at 4° C. The sucrose buffer supernatant was then centrifuged at 60,000 g for 1 h at 4° C. […] Protein concentration was determined (BCA-Kit; Pierce) and aliquots stored at −80° C. or in liquid nitrogen for long-term storage.
After the plates had been dried for 2 h at 55° C. in a drying chamber scintillation cocktail (BetaPlate Scint; PerkinElmer) was added. Radioactivity was measured in a Microbeta Trilux two hours after the addition of the scintillation mixture. Data derived from liquid scintillation counting were analysed by iterative non-linear regression analysis with the use of the Statistical Analysis System (SAS): a program similar to “LIGAND” as described by Munson and Rodbard (Analytical Biochemistry 107, 220-239 (1980). […]

[3] = Rat PK (0.05 mg/kg, iv), plasma and brain concentrations; assay type: in vivo; conditions: for Free B/P Ratio: free brain concentration divided by free plasma concentration
h-5-HT2B receptor = target: T3, h-5-HT2B receptor (Homo sapiens, UniProt P41595); assay: 5-HT2B receptor binding assay ([125I]-DOI displacement, CHO-K1 membranes); conditions: text
T3 construct: purchased Perkin Elmer ES-3,4-M400UA; host or cells: CHO-K1 cell membranes
T3 sequence (P41595 whole entry): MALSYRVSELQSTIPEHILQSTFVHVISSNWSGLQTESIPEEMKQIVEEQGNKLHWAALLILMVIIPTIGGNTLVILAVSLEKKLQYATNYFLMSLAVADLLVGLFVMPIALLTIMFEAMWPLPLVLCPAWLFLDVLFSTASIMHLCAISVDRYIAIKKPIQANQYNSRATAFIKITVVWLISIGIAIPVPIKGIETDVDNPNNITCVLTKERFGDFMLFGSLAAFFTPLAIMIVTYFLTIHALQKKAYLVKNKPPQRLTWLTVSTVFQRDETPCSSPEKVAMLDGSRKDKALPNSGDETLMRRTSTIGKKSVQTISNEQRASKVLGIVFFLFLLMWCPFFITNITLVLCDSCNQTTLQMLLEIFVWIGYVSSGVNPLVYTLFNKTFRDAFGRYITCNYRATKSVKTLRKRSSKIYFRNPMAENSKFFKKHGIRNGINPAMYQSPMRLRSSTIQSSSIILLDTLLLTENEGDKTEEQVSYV
Experimental: Cells from stable clonal cell lines expressing the corresponding receptor (5-HT6, 5-HT2A or 5-HT2B receptors) were washed with PBS with 0.02% EDTA. The cells were collected by centrifugation at 500 g for 10 min. at 4° C., washed with PBS and centrifuged (500 g, 10 min. 4° C.). The pellets were stored at −80° C. until use. For membrane preparation, the thawed cell pellet was resuspended in ice-cold sucrose buffer (0.25 M sucrose, 10 mM Hepes (pH 7.4), 1 mM Phenylmethylsulfonyl fluoride (PMSF) in DMSO, […] Pepstatin-A, 3 mM EDTA, 0.025% Bacitracin) and homogenized with a Branson Sonifier W-250 (Settings: Timer 4; Output Control 3; Duty Cycle constant; 2 to 3 cycles). Cell disruption was checked with the aid of a microscope. Remaining unbroken cells were pelleted at 1,000 g for 10 min. at 4° C. The sucrose buffer supernatant was then centrifuged at 60,000 g for 1 h at 4° C. (Beckman Ultrazentrifuge XL 80). […] Protein concentration was determined (BCA-Kit; Pierce) and aliquots stored at −80° C. or in liquid nitrogen for long-term storage.
All receptor binding experiments were carried out in the corresponding assay buffer in a total volume of 200 μl in the presence of various concentrations of test compound (10 ^−5 M to 10^−9 M, tenfold serial dilution, duplicate determinations). […] Radioactivity was measured in a Microbeta Trilux two hours after the addition of the scintillation mixture. […]

Question: With “1-(5-(3-(difluoromethoxy)phenylsulfonyl)-2-methoxyphenyl)-4-([^3H]methyl)-piperazine [Example 3]” as the compound, how does the Hippo./Cer. ([1]; 3 min after dose) read?
Answer: Its Hippo./Cer. is 3.7.

Question: And the Striatum/Cer. ([1]; 3 min after dose)?
Answer: Its Striatum/Cer. is 10.4.

Question: And the Hippo./Cer. ([1]; 40 min after dose)?
Answer: The Hippo./Cer. was 1.4.

Question: And the Striatum/Cer. ([1]; 40 min after dose)?
Answer: The Striatum/Cer. was 2.0.

Question: With `CN1CCN(c2cccc3cc(S(=O)(=O)c4cccc(F)c4)cnc23)CC1` [GSK-215083, reference compound] as the compound, how does the Ki (h-5-HT2A receptor; human 5-HT2A, read-out: Human 5-HT2A Ki) read?
Answer: The Ki was 0.395 nM.

Question: What about the Ki (Mk striatum 5-HT6) of the same compound?
Answer: Its Ki is 3.2 nM.

Question: With `COc1ccc(S(=O)(=O)c2cccc(OC(F)F)c2)cc1N1CCN(C)CC1` [Example 1, 4-(5-(3-(difluoromethoxy)phenylsulfonyl)-2-methoxyphenyl)-1-methylpiperazin-1-ium chloride] as the compound, how does the Ki [2] read?
Answer: The Ki was over 1000 nM.

Question: And the half-life (Rat microsome half-life)?
Answer: The half-life was 10 min.

Question: What about the “Selectivity for 5-HT6 v. 5-HT2A” value (h-5-HT2A receptor; ratio of human 5-HT2A Ki to human 5-HT6 Ki) of the same compound?
Answer: The value was 475.6 ×.

Question: And the “Selectivity for 5-HT6 over 5-HT2A” value (h-5-HT2A receptor; text)?
Answer: The value was 475.6 fold.

Question: And the “Selectivity for 5-HT6 over 5-HT2A” value (h-5-HT2A receptor; text, listed as Example (1))?
Answer: The value was 475 fold.

Question: What about the Ki (h-5-HT2A receptor; text, read-out: Ki at 5-HT2A receptor) of the same compound?
Answer: The Ki was 195 nM.

Question: And the Ki (Rat 5-HT6)?
Answer: Its Ki is 1.5 nM.

Question: What about the Ki (h-5-HT6 receptor) of the same compound?
Answer: The Ki was 0.41 nM.

Question: And the “Free [brain]” value ([3]; 3 min after dose)?
Answer: Its value is 53.4 ng/g.

Question: And the “Plasma Conc.” value ([3]; 3 min after dose)?
Answer: The value was 49.2 ng/mL.

Question: What about the “Free B/P Ratio” value ([3]; 3 min after dose) of the same compound?
Answer: Its value is 1.1.

Question: And the “Free [brain]” value ([3]; 5 min after dose)?
Answer: The value was 55.3 ng/g.

Question: And the “Plasma Conc.” value ([3]; 5 min after dose)?
Answer: Its value is 29.0 ng/mL.

Question: And the “Free B/P Ratio” value ([3]; 5 min after dose)?
Answer: The value was 1.7.

Question: And the Ki (h-5-HT2B receptor)?
Answer: The Ki was 71 nM.

Question: And the “Selectivity for 5-HT6 over 5-HT2B” value (h-5-HT2B receptor)?
Answer: The value was 173.2 fold.
